Experimental data as given in patent US8822468B2 (Novartis AG, priority 2008, dated 2014).

Biological target: T1, cMET receptor tyrosine kinase (GST-cMET (969-1390)) (Homo sapiens, UniProt P08581)
T1 construct: made in house
Test: EPK cMET profiling assay (LanthaScreen TR-FRET antibody based kinase phosphorylation assay)
Type: biochemical
Conditions: purified recombinant GST-cMET (969-1390), 2 μM ATP, 50 nM Fluorescein-PolyEAY, 60 minutes at room temperature; read-out: c-Met IC50
Outline: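 Compounds tested at eight final concentrations from 10 down to 0.003 µM against affinity-purified GST-cMET (969-1390, 0.3 nM) with 2 µM ATP and 50 nM fluorescein-PolyEAY in Tris buffer with MgCl2 and MnCl2, 1 h at room temperature. After EDTA stop, phosphoproduct detected by LanthaScreen TR-FRET with Tb-PY20 antibody, end-point measurement.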

T1 sequence (P08581 969-1390): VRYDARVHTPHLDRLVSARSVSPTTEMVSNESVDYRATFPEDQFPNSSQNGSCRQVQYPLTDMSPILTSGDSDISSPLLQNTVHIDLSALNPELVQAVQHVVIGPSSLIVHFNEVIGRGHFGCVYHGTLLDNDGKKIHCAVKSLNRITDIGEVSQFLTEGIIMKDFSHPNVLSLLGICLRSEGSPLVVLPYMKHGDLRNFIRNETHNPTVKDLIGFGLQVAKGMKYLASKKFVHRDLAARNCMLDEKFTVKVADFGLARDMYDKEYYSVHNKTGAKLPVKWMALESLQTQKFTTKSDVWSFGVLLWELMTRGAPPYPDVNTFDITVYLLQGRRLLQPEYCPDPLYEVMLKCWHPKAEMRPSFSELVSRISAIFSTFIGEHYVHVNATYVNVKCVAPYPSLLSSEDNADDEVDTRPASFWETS

Q: `C[C@H](c1ccc2ncccc2c1)c1cnc2ccc(-c3cnn(C)c3)nn12` [Example 158, 6-{(R)-1-[6-(1-Methyl-1H-pyrazol-4-yl)-imidazo[1,2-b]pyridazin-3-yl]-ethyl}-quinoline] was tested. Which IC50 did it give?
A: Its IC50 is 0.54 µM.

Q: With `C[C@@H](c1ccc2ncccc2c1)c1cnc2ccc(-c3cnn(C)c3)nn12` [Example 159, 6-{(S)-1-[6-(1-Methyl-1H-pyrazol-4-yl)-imidazo[1,2-b]pyridazin-3-yl]-ethyl}-quinoline] as the compound, how does the IC50 read?
A: The IC50 was 0.014 µM.

Q: Which IC50 does the source give for `Cn1cc(-c2ccc3ncc(Cc4ccc5ncccc5c4F)n3n2)cn1` [Example 160, 5-Fluoro-6-[6-(1-methyl-1H-pyrazol-4-yl)-imidazo[1,2-b]pyridazin-3-ylmethyl]-quinoline] here?
A: Its IC50 is 0.012 µM.

Q: For `Cn1cc(-c2ccc3ncc(Cc4ccc5[nH]cnc5c4)n3n2)cn1` [Example 162, 3-(1H-Benzoimidazol-5-ylmethyl)-6-(1-methyl-1H-pyrazol-4-yl)-imidazo[1,2-b]pyridazine], which IC50 is on record?
A: The IC50 was 0.034 µM.

Q: For `Cn1cc(-c2ccc3ncc(C4(c5ccc6ncccc6c5)CC4)n3n2)cn1` [Example 163, 6-{1-[6-(1-Methyl-1H-pyrazol-4-yl)-imidazo[1,2-b]pyridazin-3-yl]-cyclopropyl}-quinoline], which IC50 is on record?
A: The IC50 was 0.11 µM.

Q: For `C[C@@H](c1cc2cn[nH]c2cc1F)c1cnc2ccc(-c3cnn(C)c3)nn12` [Example 165, 3-[(S)-1-(6-Fluoro-1H-indazol-5-yl)-ethyl]-6-(1-methyl-1H-pyrazol-4-yl)-imidazo[1,2-b]pyridazine], which IC50 is on record?
A: Its IC50 is 0.012 µM.

Q: How did the IC50 turn out when `Cn1cc(-c2ccc3ncc(Cc4cc5cn[nH]c5cc4F)n3n2)cn1` [Example 167, 3-(6-Fluoro-1H-indazol-5-ylmethyl)-6-(1-methyl-1H-pyrazol-4-yl)-imidazo[1,2-b]pyridazine] was run?
A: The IC50 was 0.006 µM.

Q: For `Cn1cc(-c2ccc3ncc(Cc4cc5cccnc5cc4C(F)(F)F)n3n2)cn1` [Example 169, 6-[6-(1-Methyl-1H-pyrazol-4-yl)-imidazo[1,2-b]pyridazin-3-ylmethyl]-7-trifluoromethyl-quinoline], which IC50 is on record?
A: Its IC50 is 0.4 µM.

Q: How did the IC50 turn out when `Cn1cc(-c2ccc3ncc(Cc4c(F)cc5ncccc5c4F)n3n2)cn1` [Example 170, 5,7-Difluoro-6-[6-(1-methyl-1H-pyrazol-4-yl)-imidazo[1,2-b]pyridazin-3-ylmethyl]-quinoline] was run?
A: The IC50 was 0.006 µM.

Q: `OCCn1cc(-c2ccc3ncc(Cc4c(F)cc5ncccc5c4F)n3n2)cn1` [Example 171, 2-{4-[3-(5,7-Difluoro-quinolin-6-ylmethyl)-imidazo[1,2-b]pyridazin-6-yl]-pyrazol-1-yl}-ethanol] was tested. Which IC50 did it give?
A: Its IC50 is < 0.003 µM.

Q: For `Cn1cc(-c2ccc3ncc(Cc4ccc5ncccc5c4Cl)n3n2)cn1` [Example 172, 5-Chloro-6-[6-(1-methyl-1H-pyrazol-4-yl)-imidazo[1,2-b]pyridazin-3-ylmethyl]-quinoline], which IC50 is on record?
A: The IC50 was 0.01 µM.

Q: For `Cn1cc(-c2ccc3ncc(Cc4cc5cccnc5cc4F)n3n2)cn1` [Example 173, 7-Fluoro-6-[6-(1-methyl-1H-pyrazol-4-yl)-imidazo[1,2-b]pyridazin-3-ylmethyl]-quinoline], which IC50 is on record?
A: Its IC50 is 0.004 µM.

Q: `Cn1cc(-c2ccc3ncc([C@](C)(O)c4cc5cccnc5cc4F)n3n2)cn1` [Example 175, (R)-1-(7-Fluoro-quinolin-6-yl)-1-[6-(1-methyl-1H-pyrazol-4-yl)-imidazo[1,2-b]pyridazin-3-yl]-ethanol] was tested. Which IC50 did it give?
A: Its IC50 is 0.038 µM.

Q: `C[C@@H](c1ccc2ncccc2c1)c1cnc2ccc(-c3cnn(CCO)c3)nn12` [Example 179, 2-{4-[3-((S)-1-Quinolin-6-yl-ethyl)-imidazo[1,2-b]pyridazin-6-yl]-pyrazol-1-yl}-ethanol] was tested. Which IC50 did it give?
A: Its IC50 is 0.015 µM.

Q: Which IC50 does the source give for `Fc1cc2ncccc2cc1Cc1cnc2ccc(-c3cnn(C4CCNCC4)c3)nn12` [Example 180, 7-Fluoro-6-[6-(1-piperidin-4-yl-1H-pyrazol-4-yl)-imidazo[1,2-b]pyridazin-3-ylmethyl]-quinoline] here?
A: Its IC50 is 0.145 µM.

Q: How did the IC50 turn out when `CN1CCC(n2cc(-c3ccc4ncc(Cc5cc6cccnc6cc5F)n4n3)cn2)CC1` [Example 181, 7-Fluoro-6-{6-[1-(1-methyl-piperidin-4-yl)-1H-pyrazol-4-yl]-imidazo[1,2-b]pyridazin-3-ylmethyl}-quinoline] was run?
A: Its IC50 is 0.065 µM.
